Measured values as given in patent US8546357B2, “Boron-containing small molecules for controlling ectoparasites” (priority 2011, dated 2013).

Columns and labels:
[1] = system: American dog tick (Dermacentor variabilis) nymphs; assay: Efficacy against nymphal-stage American dog ticks on rats, oral; type: in vivo; details: oral point dose of between 5-25 mg/kg bodyweight, 48 hours after treatment
Method: Evaluations were conducted using a modified version of the assay as described in Gutierrez et al., J. Med. Entomol. 43(3): 526-532 (2006). This assay may be modified by simply using different tick species (the reference describes Amblyomma americanum ticks), such as Dermacentor variabilis or Rhipicephalus sanguineus ticks, as well as different life-stages (larval, nymphal or adult). Further, the reference describes using topical application methods, but oral, transdermal and subcutaneous injection routes of administration may be used.
In these studies, adult male or female rats, approximately 300 grams in size, were randomly assigned to a treatment group or a control (untreated negative control or fipronil positive control) group. Each group consisted of three (3) to five (5) rats. […] On Day 2, approximately forty-eight (48) hours after treatment, live and dead ticks were removed from animals and counted.
Live tick counts were transformed using the natural logarithm transformation plus one (Ln count+1); addition of one to each count served to adjust for counts that were zero. […] GM percent efficacy of treatments was calculated using the following formula:
Enantiomers were evaluated for activity against American dog tick (Dermacentor variabilis) nymphs on rats. […] On Day 2, approximately forty-eight (48) hours after treatment, live and dead ticks were removed from animals and counted. […]

[2] = system: adult American dog tick (Dermacentor variabilis); assay: Therapeutic (knockdown) and residual efficacy against adult American dog tick infestations on dogs, oral; type: in vivo; details: for Residual efficacy: Example 7, oral capsule 35 mg/kg
Method: The therapeutic (knockdown) and residual efficacy of 5, administered orally at a point dose of 25 mg/kg bodyweight, was evaluated against adult American dog tick (D. variabilis) infestations on dogs. Six beagle dogs were allocated to one of two treatment groups, an untreated control group (n=4 dogs) or 5 group (n=2 dogs). On Day 0, two dogs were treated with 5 via oral gavage (25 mg/ml 5, dissolved in a solution of 55% polyethylene glycol-300, 35% propylene glycol and 10% water) at a point dose of approximately 25 mg/kg. Twenty-four (24) hours before treatment (Day −1), all dogs were infested with approximately 50 unfed, adult-stage American dog ticks (D. variabilis; approximately 50% male and 50% female). On Day 1, approximately 24 hours after treatment, thumb counts were conducted to determine the number and life-status classification of ticks present on all dogs (normal, moribund or dead; attached or detached). Ticks were not removed during thumb counts. On Day 2, approximately 48 hours after treatment, all ticks were classified and removed from dogs. Dogs were re-infested with approximately 50 unfed, adult D. variabilis ticks on Days 5 and 12, with tick classification, counts and removal on Days 7 and 14 (approximately 48 hours after each infestation).
The therapeutic (knockdown) and residual efficacy of 7 and 8, each administered orally at a point dose of 25 mg/kg bodyweight, was evaluated against adult tick (Dermacentor variabilis and Rhipicephalus sanguineus) and adult cat flea (Ctenocephalides felis) infestations on dogs. Twelve (12) male and female beagle dogs were randomly allocated to one of three treatment groups, four (4) dogs per group: Untreated control; 7, 25 mg/kg; and 8, 25 mg/kg. On Day −1, all dogs were infested with approximately 50 unfed, adult D. variabilis ticks. On Day 0, dogs were orally administered gelatin capsules containing either 7 or 8 (50% technical active, 47% microcrystalline cellulose and 3% croscarmellose sodium, w/w). Ticks were counted and classified, but not removed, on all dogs on Day 1, approximately 24 hours after treatment. On Day 2, approximately 48 hours after treatment, ticks were counted, classified and removed. Dogs were re-infested with the same number of D. variabilis ticks on Days 5, 12, 19 and 28 and tick counts were conducted on Days 7, 14, 21 and 30.
The therapeutic (knockdown) and residual efficacy of 7, administered orally at a point dose of 35 mg/kg bodyweight, was evaluated against adult tick (Dermacentor variabilis and Rhipicephalus sanguineus) and adult cat flea (Ctenocephalides felis) infestations on dogs. Twelve (12) male and female beagle dogs were allocated to either an untreated, negative control group or 7 group (n=6 dogs per group). Dogs were infested with approximately 50 unfed, adult D. variabilis ticks on Days −1, 5, 12, 19, 28, 35 and 42. On Day 0, dogs were orally administered gelatin capsules containing Compound 8194 (50% technical active, 47% microcrystalline cellulose and 3% croscarmellose sodium, w/w) at a point dose of 35 mg/kg. D. variabilis tick counts and classification were conducted on Day 1 (thumb count, approximately 24 hours after treatment) and Days 2, 7, 14, 21, 30, 37 and 44 (approximately 48 hours after treatment). Following removal of D. variabilis ticks on Day 30, all dogs were co-infested with approximately 50 unfed, adult brown dog ticks (R. sanguineus) and approximately 100 unfed, adult cat fleas (C. felis). Brown dog tick and cat flea counts were conducted on Day 32 (approximately 48 hours after infestation). GM percent efficacy of treatments against both tick species and fleas was calculated using the following formula: […]
The therapeutic (knockdown) and residual efficacy of S-enantiomer, 9, administered orally at a point dose of 25 mg/kg bodyweight, was evaluated against adult tick (Dermacentor variabilis and Rhipicephalus sanguineus) and adult cat flea (Ctenocephalides felis) infestations on dogs. […]

[3] = Table 2, oral capsule 25 mg/kg, Day 2
[4] = Table 2, oral capsule 25 mg/kg, Day 7
[5] = Table 2, oral capsule 25 mg/kg, Day 14
[6] = Table 2, oral capsule 25 mg/kg, Day 21
[7] = Table 2, oral capsule 25 mg/kg, Day 30
[8] = Table 3, oral capsule 35 mg/kg, Day 2
[9] = Table 3, oral capsule 35 mg/kg, Day 7
[10] = Table 3, oral capsule 35 mg/kg, Day 14
[11] = Table 3, oral capsule 35 mg/kg, Day 21
[12] = Table 3, oral capsule 35 mg/kg, Day 30
[13] = Table 3, oral capsule 35 mg/kg, Day 37
[14] = Table 3, oral capsule 35 mg/kg, Day 44

Cc1cc(C2=NOC(c3cc(Cl)c(Cl)c(Cl)c3)(C(F)(F)F)C2)ccc1C(=O)NCc1ccc2c(c1)B(O)OC2(C)C (stereo not drawn) [Compound 7, N-((1-Hydroxy-3,3-dimethyl-1,3-dihydrobenzo[c][1,2]oxaborol-6-yl)methyl)-2-methyl-4-(5-(3,4,5-trichlorophenyl)-5-(trifluoromethyl)-4,5-dihydroisoxazol-3-yl)benzamide]
Maximum in vivo efficacy (% reduction in live tick counts) [1]: 7 (100%), 8 (100%), | continued residual efficacy ([2]; Example 6, oral capsule 25 mg/kg, through at least 14 days): 100% | Residual efficacy ([2]; through Day 14): > 99% | Residual efficacy ([2]; through Day 37): > 95% | Geometric mean group live parasite counts ([2]; Table 2, oral capsule 25 mg/kg, Day 1): 0.0 | % efficacy [2, 3]: (100) % | Geometric mean group live parasite counts [2, 3]: 0.0 | % efficacy [2, 4]: (100) % | Geometric mean group live parasite counts [2, 4]: 0.0 | % efficacy [2, 5]: (100) % | Geometric mean group live parasite counts [2, 5]: 0.0 | % efficacy [2, 6]: (99.3) % | Geometric mean group live parasite counts [2, 6]: 0.3 | % efficacy [2, 7]: (73.2) % | Geometric mean group live parasite counts [2, 7]: 9.5 | Geometric mean group live parasite counts ([2]; Table 3, oral capsule 35 mg/kg, Day 1): 0.1 | % efficacy [2, 8]: (100) % | Geometric mean group live parasite counts [2, 8]: 0.0 | % efficacy [2, 9]: (99.1) % | Geometric mean group live parasite counts [2, 9]: 0.3 | % efficacy [2, 10]: (100) % | Geometric mean group live parasite counts [2, 10]: 0.0 | % efficacy [2, 11]: (98.4) % | Geometric mean group live parasite counts [2, 11]: 0.2 | % efficacy [2, 12]: (98.7) % | Geometric mean group live parasite counts [2, 12]: 0.4 | % efficacy [2, 13]: (95.7) % | Geometric mean group live parasite counts [2, 13]: 1.2 | % efficacy [2, 14]: (67.2) % | Geometric mean group live parasite counts [2, 14]: 9.3
